{
  "source": "patent US20260092085A1",
  "about": "“SYNTHETIC TRIPLEX PEPTIDE NUCLEIC ACID-BASED INHIBITORS FOR CANCER THERAPY” (University of Connecticut, priority 2022, published 2026)",
  "key": {"miR-155 downstream genes": {"tested_on": "miR-155 downstream genes", "assay": "Gene expression of miR-155 downstream genes by RT-PCR in U2932 cells", "type": "cell-based, human", "conditions": "U2932, 500 nM, 48 hours", "procedure": "(§1) FIGS. 3A-F show cell culture-based functional assay in U2932 lymphoma cells. (3A) γtcPNA-155-TAMRA uptake in the U2932 lymphoma cell line: Representative flow cytometry traces of TAMRA fluorescence in U2932 cells after treatment with 500 nM dose of γtcPNA-155-TAMRA for 48 hours. The data was analyzed by FlowJo software. (3B) Normalized miR-155 gene expression levels in U2932 after treatment with phosphate buffer saline (PBS) as a control and with 500 nM dose of Scr-γtcPNA-155, PNA-155, γPNA-155 and γtcPNA-155 for 48 hours compared to average control U6 (n=3), data represented as mean±standard error mean (SEM), Statistical analysis was performed using Unpaired two-tailed t-test. Further, statistical analysis was performed relative to Scr-γtcPNA-155 treated cells. ***p<0.001. (3C) Gene expression level of miR-155 downstream genes, tumor suppressor proteins (FOXO3A, CUX1, SOCS1, CSF1R, JARID2, SHIP1, PICALM, PDCD4, BACH1, WEE1, TP53TG3, CASP3, PTEN) in U2932 cell line after treatment with PBS as a control and with after treatment with 500 nM of Scr-γtcPNA-155, PNA-155, γPNA-155 and γtcPNA-155 for 48 hours. Data is normalized with average GAPDH control (n=3), and represented as mean±SEM, *p<0.05. Unpaired two-tailed t-test was used for statistical analysis and analysis was performed relative to Scr-γtcPNA-155 treated cells. (3D) Gene expression level of miR-155 downstream genes MCL1 in U2932 cell line after treatment with PBS as a control and 500 nM of Scr-γtcPNA-155, PNA-155, γPNA-155 and γtcPNA-155 for 48 hours. Data is normalized with average GAPDH control (n=3), and represented as mean±SEM, *p<0.05, **p<0.01 and ***p<0.001. Statistical analysis was performed using Unpaired two-tailed t-test. Analysis was performed relative to Scr-γtcPNA-155 treated cells. (3E) Representative western blot of Mcl-1 and its quantification (n=3 technical replicate) and (3F) Caspase-3 protein and its quantification (n=3 technical replicate) in U2932 cell line after treatment with 500 nM of Scr-γtcPNA-155, PNA-155 and γtcPNA-155 for 48 hours. Data is represented as mean±SEM and unpaired two-tailed t-test was used for statistical analysis. *p<0.05 **p<0.01. Numbers above western blot panels represent relative quantification of the respective bands using ImageJ software and normalized relative to loading control and treatment control.\nGene expression by RT-PCR: 400,000 U2932 cells were seeded in a 12 well plate. The cells were treated with 500 nM PNA-155, gamma tcPNA-155, gamma PNA-155, Scr gamma tcPNA-155 or were PBS treated (control) for 48 hrs in an incubator (37° C. and 5% CO2). The cells were centrifuged at 2000 rpm for 4 mins at 4° C. The total RNA from the cell pellet was extracted using RNeasy® mini kit (Qiagen). The cDNA was prepared in thermal cycler (Bio-rad) using reverse transcriptase, RNase inhibitor, dNTPs, nuclease-free water and RT primers specific for miR-155 and U6. Random primers were used for the preparation of cDNA for downstream targets. The cDNA was amplified using miR-155 assay, U6 assay, or specific downstream target assays in CFX Connect™ Real-time PCR detection system (Bio-rad). The samples were subjected to polymerase activation (95° C. for 10 mins), followed by 40 cycles of denaturation (95° C. for 15 sec) and annealing (60° C. for 1 min). The 2^−ΔΔCT method was used to calculate the fold change in target genes."}, "[1]": {"tested_on": "U2932 subcutaneous tumors", "assay": "Tumor growth in U2932 derived xenograft model", "type": "in vivo, NSG mice", "conditions": "intra-tumoral injections days 0, 7, 14", "procedure": "Mouse tumor xenograft: Female NSG mice (NOD.Cg-Prkdcscid Il2rgtm1Wjl/SzJ, strain 005557) weighing 20-23 g were procured from Jackson laboratories. 1×10^7 U2932 cells suspended in RPMI-1640 medium were injected subcutaneously in the right and left flank of 6-week-old NSG mice. The mice developed a small bump in 2 weeks. When the tumor volume reached 100-200 mm^3, the mice were randomly assigned to the treatment group (n=6 per group).\nRNA and Protein extraction from tumor samples: The mice were injected intra-tumorally with 1 mg kg-1 dose of PNA-155, γtcPNA-155, γPNA-155, Scr-γtcPNA-155 or were untreated. The injections were repeated two additional times after 1 week each. The length, breadth, and depth of the tumors were measured daily using a vernier caliper. The mice were euthanized when the tumor volumes reached 2000 mm^3. The resected tumor sections were finely minced using a sterile blade and suspended in dissociation media (4 ml) comprising of RPMI-1640, 1.2 mg/ml dispase, and 0.5 mg/ml collagenase for 90 mins at 500 rpm at 37° C. The dissociated tumors were washed with buffer saline at 2500 rpm (4 mins) at 4° C. and then suspended in 0.25% trypsin for 4 mins at room temperature. RPMI 1640 media was added to the trypsinized tumor mass, and the cells were passed through a 70 um filter. The cells were centrifuged at 2500 rpm for 4 mins at 4° C. The cell pellet was then suspended in 1×RBC lysis buffer (Sigma) and incubated on ice for 10 mins. PBS was added to the cells and the cells were passed through a 40 um filter. The cells were centrifuged at 2500 rpm for 4 mins at 4° C. The cell pellet was resuspended in 0.5% BSA in PBS. The mouse cells were removed from the tumor cells using a mouse cell depletion kit (Miltenyi Biotec) according to the manufacturer's protocol. The enriched tumor cells from each tumor sample were divided into two fractions. RNA for gene expression analysis was extracted from one tumor fraction by the same procedure as mentioned earlier. The protein for western blot analysis was extracted from the second fraction using the method described above.\nFor the efficacy study, each mouse received three intra-tumoral injections of either γtcPNA-155, γPNA-155 or PNA-155 on days 0, 7, 14. We noticed that the control and scrambled treated tumors reached 2000 mm^3 much faster during our study, so we could not inject a third time in these mice. […] In contrast, as stated earlier, there was no effect on the control and scrambled PNA control on the tumor volume."}, "miR-155": {"tested_on": "miR-155", "assay": "miR-155 gene expression by RT-PCR in U2932 cells", "type": "cell-based, human", "conditions": "U2932, 500 nM, 48 hours, relative to scrambled control", "procedure": "as §1, with “Statistical analysis was performed using Unpaired two-tailed t-test. Analysis was performed relative to Scr-γtcPNA-155 treated cells.” left out, “Data is represented as mean±SEM and unpaired two-tailed t-test was used for statistical analysis. *p<0.05 **p<0.01.” left out, “control. […]” for “control.”"}},
  "note": "{RR} = two arginine residues at the PNA terminus",
  "data": [
    {"substance": "PNA-155: conventional full-length regular PNA (23mer), RR-ACCCCTATCACGATTAGCATTAA-RR, SEQ ID NO: 1 (all peptide nucleic acid (PNA), 5' {RR}, 3' {RR}) [reference compound]", "values": [
      {"measurement": "reduction in MCL1 gene expression levels", "setting": "miR-155 downstream genes", "result": 10, "unit": "%"},
      {"measurement": "tumor growth / tumor volume", "setting": "[1]", "result": "reduced the tumor growth"},
      {"measurement": "miR-155 inhibition", "setting": "miR-155", "result": "approximately 80%"}
    ]},
    {"substance": "γtcPNA-155: serine gamma tail-clamp anti-miR-155 PNA, RR-TJJJJ-OOO-ACCCCTATCACGATTAGCATTAA-RR, SEQ ID NO: 3 (all peptide nucleic acid (PNA); serine gamma PNA, tail-clamp TJJJJ via linkers, Arg-Arg at both ends)", "values": [
      {"measurement": "de-repression of miR-155 target tumor suppressor genes", "setting": "miR-155 downstream genes", "result": "significant de-repression"},
      {"measurement": "reduction in MCL1 gene expression levels", "setting": "miR-155 downstream genes", "result": 40, "unit": "%"},
      {"measurement": "increase in CSF1R levels", "setting": "miR-155 downstream genes; in comparison to PNA-155", "result": 1.8, "unit": "fold"},
      {"measurement": "increase in CUX1 levels", "setting": "miR-155 downstream genes; in comparison to PNA-155", "result": 1.6, "unit": "fold"},
      {"measurement": "increase in SHIP1 levels", "setting": "miR-155 downstream genes; in comparison to PNA-155", "result": 1.4, "unit": "fold"},
      {"measurement": "tumor growth / tumor volume", "setting": "[1]", "result": "reduced the tumor growth"},
      {"measurement": "miR-155 inhibition", "setting": "miR-155", "result": "~90", "unit": "%"}
    ]}
  ]
}
